Measurements as given in US6887712B1, “Methods and compositions to lower plasma cholesterol levels” (AtheroGenics, Inc., priority 1998, dated 2005).

Columns and labels:
[1] = tested on: plasma cholesterol; assay: Plasma cholesterol lowering in hamsters; design: species or system hamster; conditions: ability to lower plasma cholesterol in vivo in hamsters, yes/no
Method: The monosuccinic acid ester of probucol and several other compounds were tested in vitro in the immunoreactivity cell-free assay described above in Example 3 and in vivo in hamsters for their ability to lower plasma cholesterol.

[2] = target: T1, specific epitope on apoB-100 of LDL (Homo sapiens, UniProt P04114); assay: Immunoreactivity cell-free sandwich ELISA: binding of LDL to capture anti-apoB monoclonal antibody; conditions: for Cell-Free Assay: immunoreactivity cell-free assay of Example 3, yes/no
T1 construct: from tissue; host or cells: LDL particles (plasma lipoprotein)
T1 sequence (P04114 28-4563): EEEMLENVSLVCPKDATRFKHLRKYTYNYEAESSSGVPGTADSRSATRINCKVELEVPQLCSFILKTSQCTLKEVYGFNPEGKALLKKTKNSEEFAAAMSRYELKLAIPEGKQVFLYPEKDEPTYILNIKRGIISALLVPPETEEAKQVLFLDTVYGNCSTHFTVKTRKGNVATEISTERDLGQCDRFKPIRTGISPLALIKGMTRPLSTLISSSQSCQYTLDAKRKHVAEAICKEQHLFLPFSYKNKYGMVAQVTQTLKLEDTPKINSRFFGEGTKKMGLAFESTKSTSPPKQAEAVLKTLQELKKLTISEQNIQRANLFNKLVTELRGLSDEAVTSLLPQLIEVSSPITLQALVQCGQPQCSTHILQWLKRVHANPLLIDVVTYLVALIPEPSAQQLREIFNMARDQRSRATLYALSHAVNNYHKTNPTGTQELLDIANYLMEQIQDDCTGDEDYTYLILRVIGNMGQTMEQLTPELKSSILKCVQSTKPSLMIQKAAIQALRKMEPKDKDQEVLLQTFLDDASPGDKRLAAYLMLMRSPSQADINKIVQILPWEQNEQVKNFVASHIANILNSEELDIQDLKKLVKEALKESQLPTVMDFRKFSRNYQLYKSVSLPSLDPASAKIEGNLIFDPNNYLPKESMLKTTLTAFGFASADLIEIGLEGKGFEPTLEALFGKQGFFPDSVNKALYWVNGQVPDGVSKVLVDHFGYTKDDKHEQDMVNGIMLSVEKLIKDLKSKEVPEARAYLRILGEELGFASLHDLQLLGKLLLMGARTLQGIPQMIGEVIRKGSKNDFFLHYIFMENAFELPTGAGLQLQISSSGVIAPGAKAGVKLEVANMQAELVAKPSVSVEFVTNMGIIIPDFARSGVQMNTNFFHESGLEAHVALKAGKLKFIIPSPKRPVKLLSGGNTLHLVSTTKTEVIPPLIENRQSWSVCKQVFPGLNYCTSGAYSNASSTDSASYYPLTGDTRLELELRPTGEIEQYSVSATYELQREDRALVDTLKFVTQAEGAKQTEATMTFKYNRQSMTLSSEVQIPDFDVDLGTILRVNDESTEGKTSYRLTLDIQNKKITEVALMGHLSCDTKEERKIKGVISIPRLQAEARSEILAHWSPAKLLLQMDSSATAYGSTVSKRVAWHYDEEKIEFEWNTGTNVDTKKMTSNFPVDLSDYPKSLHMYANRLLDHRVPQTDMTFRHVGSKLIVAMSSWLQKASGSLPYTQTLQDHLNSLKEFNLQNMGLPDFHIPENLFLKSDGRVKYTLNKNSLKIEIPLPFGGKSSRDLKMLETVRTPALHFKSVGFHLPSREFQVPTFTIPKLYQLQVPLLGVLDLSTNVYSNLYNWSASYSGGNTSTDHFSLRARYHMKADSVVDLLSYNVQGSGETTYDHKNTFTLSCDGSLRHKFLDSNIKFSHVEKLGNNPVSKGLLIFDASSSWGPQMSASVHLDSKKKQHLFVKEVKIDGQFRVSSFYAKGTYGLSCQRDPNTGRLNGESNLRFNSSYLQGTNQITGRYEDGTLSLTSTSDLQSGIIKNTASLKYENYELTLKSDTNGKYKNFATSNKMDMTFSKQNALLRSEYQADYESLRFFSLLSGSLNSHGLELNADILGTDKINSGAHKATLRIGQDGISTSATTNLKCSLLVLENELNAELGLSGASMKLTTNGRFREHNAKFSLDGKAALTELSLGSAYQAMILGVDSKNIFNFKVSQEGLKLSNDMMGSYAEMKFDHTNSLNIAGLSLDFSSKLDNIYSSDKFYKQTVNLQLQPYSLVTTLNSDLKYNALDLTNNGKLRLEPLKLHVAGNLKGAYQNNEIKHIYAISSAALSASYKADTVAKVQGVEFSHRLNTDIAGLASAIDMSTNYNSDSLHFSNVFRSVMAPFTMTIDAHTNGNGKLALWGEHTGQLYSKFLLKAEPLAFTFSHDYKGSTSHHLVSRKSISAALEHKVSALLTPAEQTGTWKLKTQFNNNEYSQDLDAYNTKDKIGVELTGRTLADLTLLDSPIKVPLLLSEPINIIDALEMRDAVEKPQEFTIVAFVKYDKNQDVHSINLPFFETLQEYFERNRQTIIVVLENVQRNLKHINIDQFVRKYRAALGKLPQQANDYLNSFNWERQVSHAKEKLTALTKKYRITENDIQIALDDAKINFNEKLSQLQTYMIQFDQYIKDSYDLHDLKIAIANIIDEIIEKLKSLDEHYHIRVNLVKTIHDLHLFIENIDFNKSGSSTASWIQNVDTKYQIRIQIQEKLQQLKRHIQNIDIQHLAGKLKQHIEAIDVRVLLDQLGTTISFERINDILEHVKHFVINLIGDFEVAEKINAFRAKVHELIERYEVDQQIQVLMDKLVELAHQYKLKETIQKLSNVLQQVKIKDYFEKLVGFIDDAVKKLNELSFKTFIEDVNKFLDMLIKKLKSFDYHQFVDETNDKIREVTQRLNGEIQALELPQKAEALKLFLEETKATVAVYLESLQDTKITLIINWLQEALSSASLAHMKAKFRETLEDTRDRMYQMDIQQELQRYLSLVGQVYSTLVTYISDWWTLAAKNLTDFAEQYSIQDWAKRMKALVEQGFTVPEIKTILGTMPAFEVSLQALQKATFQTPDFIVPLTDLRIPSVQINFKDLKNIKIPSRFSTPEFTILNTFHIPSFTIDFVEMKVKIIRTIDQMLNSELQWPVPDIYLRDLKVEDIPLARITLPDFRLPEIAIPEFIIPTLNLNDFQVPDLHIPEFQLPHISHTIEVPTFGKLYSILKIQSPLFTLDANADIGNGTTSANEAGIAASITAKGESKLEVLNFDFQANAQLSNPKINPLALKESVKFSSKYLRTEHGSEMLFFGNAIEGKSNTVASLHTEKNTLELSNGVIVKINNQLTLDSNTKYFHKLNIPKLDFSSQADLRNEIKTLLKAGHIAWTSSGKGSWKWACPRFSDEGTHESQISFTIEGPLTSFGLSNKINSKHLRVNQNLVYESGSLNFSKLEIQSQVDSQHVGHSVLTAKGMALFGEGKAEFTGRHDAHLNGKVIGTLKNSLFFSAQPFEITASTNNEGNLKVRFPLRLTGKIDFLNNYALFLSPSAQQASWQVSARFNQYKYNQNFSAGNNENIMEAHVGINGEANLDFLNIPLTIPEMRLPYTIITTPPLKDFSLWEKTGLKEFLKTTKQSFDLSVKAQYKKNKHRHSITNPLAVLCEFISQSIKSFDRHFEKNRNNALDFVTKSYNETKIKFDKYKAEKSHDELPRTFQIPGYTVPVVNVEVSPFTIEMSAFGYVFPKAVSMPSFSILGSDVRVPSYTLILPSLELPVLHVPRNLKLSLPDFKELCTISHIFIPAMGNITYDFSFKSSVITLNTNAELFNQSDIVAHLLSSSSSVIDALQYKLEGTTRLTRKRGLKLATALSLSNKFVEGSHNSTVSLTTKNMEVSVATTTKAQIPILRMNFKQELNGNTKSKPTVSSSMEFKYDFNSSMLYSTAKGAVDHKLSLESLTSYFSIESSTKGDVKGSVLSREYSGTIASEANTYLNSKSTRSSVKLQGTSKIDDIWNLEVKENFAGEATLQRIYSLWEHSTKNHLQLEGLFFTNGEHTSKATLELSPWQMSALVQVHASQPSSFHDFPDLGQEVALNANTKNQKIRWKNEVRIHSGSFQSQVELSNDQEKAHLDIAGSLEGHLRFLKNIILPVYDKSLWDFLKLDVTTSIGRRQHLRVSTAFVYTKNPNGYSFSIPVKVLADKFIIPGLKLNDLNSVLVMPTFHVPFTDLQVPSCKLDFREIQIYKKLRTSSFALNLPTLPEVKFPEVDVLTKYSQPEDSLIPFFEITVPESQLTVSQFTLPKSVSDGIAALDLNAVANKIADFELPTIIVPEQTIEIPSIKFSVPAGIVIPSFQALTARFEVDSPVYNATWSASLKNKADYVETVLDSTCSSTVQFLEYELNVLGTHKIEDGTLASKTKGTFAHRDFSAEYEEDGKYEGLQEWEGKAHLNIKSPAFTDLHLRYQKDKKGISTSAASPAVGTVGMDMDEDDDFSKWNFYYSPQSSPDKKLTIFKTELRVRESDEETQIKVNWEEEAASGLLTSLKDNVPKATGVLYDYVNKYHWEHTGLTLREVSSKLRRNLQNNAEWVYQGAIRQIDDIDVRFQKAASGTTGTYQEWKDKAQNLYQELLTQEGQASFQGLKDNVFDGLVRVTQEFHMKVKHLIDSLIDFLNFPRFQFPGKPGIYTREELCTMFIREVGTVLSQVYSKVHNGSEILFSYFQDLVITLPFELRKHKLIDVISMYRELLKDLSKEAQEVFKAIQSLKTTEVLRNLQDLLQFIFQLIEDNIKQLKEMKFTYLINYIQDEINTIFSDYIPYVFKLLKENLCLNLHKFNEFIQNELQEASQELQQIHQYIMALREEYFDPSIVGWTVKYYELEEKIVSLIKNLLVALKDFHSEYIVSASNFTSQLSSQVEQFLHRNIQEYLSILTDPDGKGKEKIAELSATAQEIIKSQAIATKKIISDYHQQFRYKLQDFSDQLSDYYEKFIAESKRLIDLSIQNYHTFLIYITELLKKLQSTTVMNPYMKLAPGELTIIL
From the text: To determine if the binding of the monosuccinic acid ester to VLDL and LDL can cause a change in the structure of apoB-100, an immunoreactivity assay was designed. This is a sandwich ELISA assay which measures the expression of a specific epitope on apoB-100. Essentially the sandwich ELISA consists of a specific monoclonal antibody directed to that epitope on apoB-100 as a capture antibody laid onto a microtitre plate. […] A second polyclonal antibody is then used to quantify the amount of LDL captured.
The detailed immunoreactivity protocol is as follows. A nunc maxi-sorp microtiter plate is coated overnight at 4° C. with 100 μl of Anti-Human ApoB monoclonal antibody from Boehringer Mannheim (catalog # 1533 975) diluted 1:1000 in PBS pH 7.4. The compounds are dissolved in DMSO with appropriate concentration of LDL for 15 minutes and incubated at 37° C.
The coated microtiter plate is washed three times with 200 μl PBS/0.05% tween, and a sample of 100 μl LDL/Compound or LDL standard is added to each well. The plates are then incubated for 2 hours at room temperature.
The microtiter plate is washed three times with 200 μl PBS/0.05% tween, and 100 μl of 1:2000 Polyclonal Human Anti-ApolipoproteinB from Boehringer Mannheim (catalog # 726 494) in PBS/tween 0.05% is added. The plate is incubated for one hour at room temperature.
The microtiter plate is washed three times with 200 ul PBS/0.05% tween, and 100 μl of 1:2000 Anti-Sheep Ig peroxidase from Boehringer Mannheim (catalog # 605 345) in PBS/05% tween is added. The plate is incubated for one hour at room temperature.
The microtiter plate is washed three times with 200 ul PBS/0.05% tween, and 100 μl of TMB substrate is added and incubated for 5-10 minutes in the dark. The reaction is stopped with 15 μl 8N H2SO4 and read on the Bio-Rad Microplate plate reader at 450 nm within 30 minutes.

[3] = tested on: VLDL and LDL clearance; assay: Lipoprotein turnover study in monkeys (stable isotope labelling of apoB-100); type: in vivo, monkey; conditions: no species or dose stated
Method: A lipoprotein turnover study was performed in monkeys that were dosed with the monosuccinic acid ester of probucol (25 mg/kg/day for one four weeks). The clearance rates of VLDL and LDL were examined before and after treatment of the animals using a stable isotope technique to label apoB-100 in VLDL and LDL.

[4] = tested on: total plasma cholesterol; assay: Cholesterol lowering in mice lacking functional LDL receptors; type: in vivo, mouse; conditions: LDL receptor-deficient mice, 150 mg/kg/day oral with high fat/high cholesterol diet, 12 weeks
Method: To explore whether the enhanced clearance is mediated by the tissue LDL receptors, the major clearance mechanism for LDL in the body, the LDL lowering activity of the monosuccinic acid ester of probucol was tested in a mouse model that lacks functional LDL receptors (eliminated through genetic engineering).

[5] = target: T2, purified human LDL (Homo sapiens, UniProt P04114); assay: Agarose electrophoresis of purified human LDL mixed with compound; type: binding
T2 construct: from tissue; host or cells: human LDL particles (plasma lipoprotein)
T2 sequence (P04114 28-4563): as above
Method: Agarose electrophoresis is a technique used to separate and study lipoproteins. The monosuccinic acid ester of probucol was added to purified human LDL and the mixture was run on agarose electrophoresis.

[6] = tested on: LDL cholesterol, HDL, plasma triglycerides; conditions: human, in vivo; cited from earlier work

| Molecule | Hamster [1] | Cell-Free Assay [2] | also measured |
| --- | --- | --- | --- |
| CC(C)(Sc1cc(C(C)(C)C)c(O)c(C(C)(C)C)c1)Sc1cc(C(C)(C)C)c(OCC(O)C(O)C(O)C(=O)O)c(C(C)(C)C)c1 (stereo not shown) [5-[4-[[1-[[3,5-bis(1,1-dimethylethyl)-4-hydroxyphenyl)thio]-1-methylethyl]thioo-2,6-bis(1,1-dimethylethyl)phenoxy-2,3,4-trihydroxy-pentanoic acid] | no | yes | – |
| CC(C)(C)c1cc(SCc2cccc(C(F)(F)F)c2)cc(C(C)(C)C)c1O [2,6-di-tert-butyl-4-[(3-trifluoromethyl)benzylthio]phenol] | yes | no | – |
| CC(C)(Sc1cc(C(C)(C)C)c(O)c(C(C)(C)C)c1)Sc1cc(C(C)(C)C)c(OC(=O)CCCC(=O)O)c(C(C)(C)C)c1 [pentanedioic acid, mono[4-[[1-[3,5-bis(1,1-dimethylethyl)-4-hydroxyphenyl]thio]1-methylethyl]thio-2,6-bis(1,1-dimethylethyl)phenyl]ester] | yes | yes | – |
| COC(=O)c1ccc(CSc2cc(C(C)(C)C)c(O)c(C(C)(C)C)c2)o1 [Methyl 5-(3,5-id-tert-butyl-4-hydroxyphenylthio)methyl-2-furoate] | yes | yes | – |
| CC(C)(Sc1cc(C(C)(C)C)c(O)c(C(C)(C)C)c1)Sc1cc(C(C)(C)C)c(OCC(O)C(O)C(O)C(O)CO)c(C(C)(C)C)c1 (stereo not shown) [probucol-2,3,4,5,6-pentahydroxyhexyl ether] | yes | yes | – |
| CC(C)(C)c1cc(SCC(=O)c2ccc([N+](=O)[O-])cc2)cc(C(C)(C)C)c1O [α-(3,5-di-tert-butyl-4-hydroxyphenylthio)-4-nitro-acetophenone] | yes | no | – |
| Mono[4-(3,5-di-tert-butyl-4-hydroxybenzyl)-2,6-di-tert-butylphenyl]glutarate | no | no | – |
| CC(C)(C)c1cc(SCc2cccc(OC(F)(F)F)c2)cc(C(C)(C)C)c1O [2,6-di-tert-butyl-4-[(3-trifluoromethoxy)benzylthio]phenol] | no | no | – |
| CC(C)(C)c1cc(SCc2ccc(CCO)cc2)cc(C(C)(C)C)c1O [2,6-di-tert-butyl-4-thio-(4′-(methyl)phenylethyl alcohol))phenol] | yes | yes | – |
| CN(C)C(=O)c1ccc(CSc2cc(C(C)(C)C)c(O)c(C(C)(C)C)c2)cc1 [N,N-dimethyl-4-[(3,5-di-tert-butyl-4-hydroxyphenylthio)methyl]benzamide] | yes | no | – |
| Mono[4-(3,5-di-tert-butyl-4-hydroxybenzyl)2,6-di-tert-butylphenyl] succinate | no | yes | – |
| CC(C)(C)c1cc(SCc2ccc(F)cc2C(F)(F)F)cc(C(C)(C)C)c1O [2,6-di-tert-butyl-4-[4-fluoro-2-(trifluoromethyl)benzylthio]phenol] | no | no | – |
| Mono[4-(3,5-di-tert-butyl-4-hydroxyphenacylthio)-2,6-di-tert-butylphenyl] succinate | no | yes | – |
| CCCN(CCC)C(=O)c1ccc(CSc2cc(C(C)(C)C)c(O)c(C(C)(C)C)c2)cc1 [N,N-dipropyl-4-[(3,5-di-tert-butyl-4-hydroxyphenylthio)methyl]benzamide] | no | no | – |
| O=C(O)CCC(=O)O [succinate, reference compound] | – | – | effect on binding of LDL to the capture monoclonal antibody (FIG. 6a) [2]: no significant effect |
| CC(C)(C)c1cc(SCc2ccc(C(F)(F)F)cc2)cc(C(C)(C)C)c1O [2,6-di-tert-butyl-4-thio-(4′-(trifluoromethyl)benzyl) phenol] | yes | yes | – |
| CC(C)(C)c1cc(SCc2ccc([N+](=O)[O-])cc2[N+](=O)[O-])cc(C(C)(C)C)c1O [2,6-di-tert-butyl-4-[(2,4-dinitrobenzyl)thio]phenol] | no | no | – |
| CC(C)(Sc1cc(C(C)(C)C)c(O)c(C(C)(C)C)c1)Sc1cc(C(C)(C)C)c(O)c(C(C)(C)C)c1 [probucol, 4,4′-(isopropylidenedithio) bis(2,6-di-tert-butylphenol), reference compound] | – | – | effect on clearance of VLDL (general statement) [3]: little effect; lowering of plasma cholesterol [4]: 17%; shift of electrophoretic mobility of LDL [5]: did not shift the mobility of LDL; effect on binding of LDL to the capture monoclonal antibody (FIG. 6a) [2]: no significant effect; effect on plasma triglycerides [6]: no effect |
| CN(C)C(=O)Cc1ccc(CSc2cc(C(C)(C)C)c(O)c(C(C)(C)C)c2)cc1 [N,N-dimethyl-4-[(3,5-di-tert-butyl-4-hydroxyphenylthio)methyl]phenylacetamide] | yes | yes | – |
| Cc1c(C)c2c(c(C)c1OC(=O)CCC(=O)O)CC[C@@](C)(CCC[C@H](C)CCC[C@H](C)CCCC(C)C)O2 [vitamin E succinate, reference compound] | – | – | effect on binding of LDL to the capture monoclonal antibody (FIG. 6a) [2]: increased the binding of LDL |
| CC(C)(C)c1cc(SCc2ccc(F)cc2)cc(C(C)(C)C)c1O [2,6-di-tert-butyl-4-[(4-fluorobenzyl)thio]phenol] | no | no | – |
| CC(C)(C)c1cc(SCc2ccc(OC(=O)c3ccccc3)cc2)cc(C(C)(C)C)c1O [4-[(3,5-di-tert-butyl-4-hydroxyphenylthio)methyl]phenyl benzoate] | yes | yes | – |
| CCN(CC)S(=O)(=O)c1ccc(CSc2cc(C(C)(C)C)c(O)c(C(C)(C)C)c2)cc1 [N,N-diethyl-4-[3,5-di-tert-butyl-4-hydroxyphenylthio)methyl]benzene-sulfonamide] | no | no | – |
| CN(C)S(=O)(=O)c1ccc(CSc2cc(C(C)(C)C)c(O)c(C(C)(C)C)c2)cc1 [2,6-di-tert-butyl-4-thio-(4′-methyl-N,N-dimethylbenzenesulfonamide) phenol] | yes | yes | – |
| vitamin E [reference compound] | – | – | effect on binding of LDL to the capture monoclonal antibody (FIG. 6a) [2]: no significant effect |
| CC(C)(Sc1cc(C(C)(C)C)c(O)c(C(C)(C)C)c1)Sc1cc(C(C)(C)C)c(OC[C@@H](O)[C@@H](O)[C@H](O)[C@@H](O)C=O)c(C(C)(C)C)c1 [6-deoxy-6-(probucol-1-yl)-D-glucose] | yes | yes | – |
